# Experimental data reported in PubChem BioAssay AID1996.
# Details: buffer; pH 7.4; 200.0 µM
row,SMILES,solubility kinetic [µg/mL]
1,Cc1[nH]c2ccccc2c1C(=O)CSC(=S)N1CCN(C)CC1,2.4
2,Cc1c(C)n(CC(O)CN(CCO)CCO)c2ccccc12.Cl (stereo not drawn),> 51.4
3,O=C(O)CCCC(=O)Nc1ccc2c(c1)oc1ccccc12,> 44.6
4,O=C(Nc1nc(-c2ccccc2)cs1)c1ccco1,22.3
5,Fc1ccccc1-c1nc(-c2ccc(Br)o2)no1,< 0.3
6,Cc1c(NS(=O)(=O)c2cc(C(=O)N(C)Cc3ccccc3)ccc2Cl)c(=O)n(-c2ccccc2)n1C,> 78.8
7,O=S(=O)(c1cc(F)ccc1F)N1CCC2(CC1)OCCO2,> 47.9
8,CN(C)/C=N/c1ncc(C(=O)OC(C)(C)C)s1,> 38.3
9,COCCNC(=S)N1CCN(C/C=C/c2ccccc2)CC1,> 47.9
10,O=C(CCC(=O)Nc1cccc([N+](=O)[O-])c1)NCc1ccccc1,48.5
11,Cn1c(=O)c2[nH]c(-c3ccc(S(=O)(=O)O)cc3)nc2n(C)c1=O.O,> 53.2
12,Brc1ccc(-c2noc(-c3ccccc3)n2)o1,< 0.3
13,CSc1ccccc1C(=O)Nc1ccc2c(c1)OCO2,> 43.1
14,COC(=O)C1=C(N)Oc2cc(C)[nH]c(=O)c2C1c1ccc(Cl)cc1 (stereo not drawn),1.7
15,Cc1cc(N2CC(C)OC(C)C2)nc(C(C)C)n1 (stereo not drawn),21.9
16,COc1ccc(CNC(=O)CCC(=O)Nc2cccnc2)cc1,42.3
17,CCOc1ccc2nc(NC(=O)C3CCCO3)sc2c1 (stereo not drawn),> 43.9
18,CC(=O)Nc1ccc(S(=O)(=O)Nc2cccc3cccnc23)cc1,> 51.2
19,O=c1c2sccc2[nH]c(=S)n1-c1ccccc1,38.5
20,CC(C)C(=O)NC(CC(=O)O)c1ccccc1 (stereo not drawn),> 35.3
21,CCC1Oc2ccccc2N(CC(=O)N2CCOCC2)C1=O (stereo not drawn),> 45.7
22,COc1ccc(-c2cc(C(=O)NCc3cccs3)no2)cc1,0.3
23,Cc1cccc(C)c1OCCCN1CCOCC1.Cl,35.5
24,O=C(CC1S/C(=N/N=C2CCCCCC2)NC1=O)Nc1ccccc1F (stereo not drawn),> 56.5

row,SMILES,solubility kinetic [µg/mL]
1,O=C(Nc1cccnc1Cl)c1cccc(S(=O)(=O)N2CCOCC2)c1,> 57.3
2,Nc1cc(N2CCOCC2)c(Cl)cc1[N+](=O)[O-],31.4
3,O=C(CNC(=O)c1ccccc1Cl)Nc1ccncc1,> 43.5
4,Cn1cnnc1SCC(=O)c1ccc2c(c1)NC(=O)CO2,> 45.6
5,Cc1ncc([N+](=O)[O-])n1Cc1ccccc1F,> 35.3
6,O=C(COC(=O)Cc1ccc([N+](=O)[O-])cc1)NC1CCCCCC1,> 50.2
7,C=CCN1C(=O)C2(OCCCO2)c2c(C)ccc(C)c21,28.2
8,COc1ccc(OC)c(CNC(=O)C2CCN(S(C)(=O)=O)CC2)c1,> 53.5
9,Cc1cnc(NC(=O)Cc2ccc(C)c(C)c2)s1,2
10,Cc1ccccc1OCC(O)CN1CCCCC1.Cl (stereo not drawn),> 42.9
11,CC(C)[C@H](NC(=O)c1cccc(CN(Cc2ccccc2)C(=O)/C=C/c2ccccc2)c1)C(=O)O,69
12,Cc1ccc(S(=O)(=O)N2CCCCC2)cc1C(=O)N1C(C)CCCC1C (stereo not drawn),> 56.8
13,Cc1cccc(C)c1NC(=O)c1ccc(OCc2c(C)noc2C)cc1,8.7
14,CCC(=O)NC(c1ccccc1)c1c(OC(C)=O)ccc2ccccc12 (stereo not drawn),> 52.1
15,Nc1ccccc1C(=O)NCc1ccc(F)cc1,> 36.6
16,CC(C)N1CCN(Cc2ccc3c(c2)OCCO3)CC1CCO (stereo not drawn),45.5
17,O=C(OCC(=O)N1CCCc2ccccc21)c1ccccc1OC(F)F,29.7
18,CCCCN1C(=O)C(C)=C(C)C1OCCc1ccc(OC)c(OC)c1 (stereo not drawn),50.5
19,COc1ccc(Cl)cc1NC(=O)Nc1cnccn1,0.4
20,Cc1ccc(C)c(NC(=O)Cc2nc(CNCC(C)C)cs2)c1,47.1
21,O=S(=O)(CCN1CCOCC1)c1ccc(OC(F)(F)F)cc1,> 50.9
22,Cc1nc2ccc([N+](=O)[O-])cc2c(=O)n1Cc1ccc([N+](=O)[O-])cc1,2.5
23,COc1ccc(-c2noc(CN(Cc3nccn3C)C(C)C)n2)cc1,45.6
24,O=C(CCS(=O)(=O)c1ccccc1)N1CCCc2ccccc21,49.2

row,SMILES,solubility kinetic [µg/mL]
1,O=C(CSc1nccc(=O)[nH]1)Nc1cccc2ccccc12,> 46.7
2,Cc1ccc(/C=C/C(=O)OCC(=O)NCCc2ccc(S(N)(=O)=O)cc2)o1,> 58.9
3,CC(=O)C1=C(O)C(=O)N(c2ccccn2)C1c1ccc(Cl)cc1 (stereo not drawn),40.9
4,O=C(COC(=O)c1ccccc1Br)NCC1CCCO1 (stereo not drawn),> 51.3
5,CC(=O)c1ccc(S(=O)(=O)Nc2ccc(S(=O)(=O)N3CCCCC3)cc2)cc1,> 63.4
6,Cc1c2c(n3c(nc4ccccc43)c1C#N)N(CCN(C)C)CC2,> 47.9
7,Cc1ccc(C(=O)NC(=S)NCc2ccccc2)cc1Br,0.4
8,COC(=O)c1ccc(NC(=O)c2cccnc2)cc1,> 38.4
9,CSCCC(NS(=O)(=O)c1ccccc1F)C(=O)NCC(c1ccco1)N(C)C (stereo not drawn),> 66.5
10,CSc1ncccc1C(=O)OCC(=O)Nc1nc(C)c(Cl)cc1Cl,10
11,NC1=NC(=O)/C(=C/c2ccc(Cl)cc2Cl)S1,1.3
12,Cc1ccsc1C(=O)OCC(=O)NCc1ccc(Cl)cc1,4.5
13,O=S(=O)(Nc1c(F)cccc1F)c1ccc2c(c1)OCCO2,2.5
14,COc1ccc(CNC(=O)COC(=O)c2ccc(S(=O)(=O)N3CCCCC3)cc2)cc1,2.1
15,CCC(=O)c1cn(CC(=O)Nc2cccc(OC)c2)c2ccccc12,< 0.4
16,O=c1[nH]c(=S)n(Cc2ccc(F)cc2)c(O)c1C=NCCCn1ccnc1,> 58.1
17,CCCCNC(=O)NCCN1CCOCC1,31.9
18,Cl.OCCN(CC#CC(O)(c1ccccc1)C1CCCCC1)CCO (stereo not drawn),53
19,COc1ccccc1C(=O)NC(=O)CSc1nnc2ccccn12,> 51.4
20,COC(=O)c1ccc(Nc2cc(C)nc3ccc(C)cc23)cc1.Cl,8
21,CC1(C)CC2(CCO1)OC(=O)CC2C(=O)Nc1c(Cl)cccc1Cl (stereo not drawn),52.9
22,Clc1ccc(-c2cnc3n2CCCCC3)cc1,> 37
23,Cc1cc(SCc2cccc([N+](=O)[O-])c2)nc(=O)[nH]1,35.3
24,O=C1COc2ccc(S(=O)(=O)N3CCCC3)cc2N1,> 42.3

row,SMILES,solubility kinetic [µg/mL]
1,COc1cc(SC)ccc1C(=O)NCCCn1ccnc1,> 45.8
2,CCCNC(=O)N1CCC(Cc2ccccc2)CC1,> 39.1
3,CCOC(=O)c1cc(C#N)c(N2CCCNCC2)nc1C(F)(F)F,> 51.3
4,C#CCOn1c(-n2nc(C)cc2C)nc2ccccc2c1=O,> 44.1
5,CCOC(=O)Cn1cc(C(=O)C(=O)N2CCOCC2)c2ccccc21,> 51.7
6,Cc1sc2ncnc(Sc3ccccc3C(=O)O)c2c1C,46.9
7,CCCOC(=O)Cn1cnc2scc(-c3ccc(OC)cc3)c2c1=O,27.7
8,Cc1cc(C)c(C(N)=O)c(Nc2ccc(F)cc2)n1,> 38.9
9,Cc1cc(C(=O)Nc2sccc2C#N)c2ccccc2n1,20.8
10,CN(C)C(=O)Nc1ccccc1,> 24.6
11,Cc1cc(C)c2nc(Cl)c(C3NC(=O)c4ccccc4N3)cc2c1 (stereo not drawn),< 0.2
12,CCOC(=O)COc1cc2oc(=O)cc(C)c2cc1[N+](=O)[O-],3
13,CCc1cccc(C)c1NC(=O)CCOc1ccccc1,10.9
14,Brc1ccc(CNCC2CCCO2)cc1 (stereo not drawn),33.9
15,CCc1cc2c(NC3CCCC3)ncnc2s1.Cl,30.8
16,CCS(=O)(=O)Nc1ccc2[nH]c(=O)[nH]c2c1,> 36.2
17,CC(=O)Nc1cccc(-c2cc(-c3c(Cl)cccc3Cl)no2)c1,3.7
18,O=C(CNC(=O)c1ccccc1Cl)NCCc1cccs1,> 48.4
19,O=C(c1ccco1)N1CCC(c2nc3ccccc3[nH]2)CC1,> 44.3
20,COc1ccc(OC)c(C(=O)COC(=O)c2ccc([N+](=O)[O-])o2)c1,> 50.3
21,COc1cc(C(C)=O)ccc1OCC(=O)NCC(c1ccc(F)cc1)N1CCOCC1 (stereo not drawn),> 64.6
22,Cc1cccc(C)c1OCC(=O)Nc1c(C)nn(C)c1C,> 43.1
23,CC(=O)N(Nc1ccccc1)c1ccccc1,> 33.9
24,CN(Cc1ccccc1Cl)C(=O)c1cc2ccccc2o1,13.7

row,SMILES,solubility kinetic [µg/mL]
1,N#Cc1ccsc1NC(=O)COC(=O)c1ccc(Br)o1,10.5
2,Cc1c(C(=O)O/N=C(\N)c2ccccn2)cccc1[N+](=O)[O-],5.2
3,O=C(Nc1cc(S(=O)(=O)N2CCOCC2)ccc1N1CCOCC1)c1c(F)cccc1Cl,2.2
4,C=C(C)CN(CC)C(=O)CC1C(=O)NCCN1CC(C)(C)C (stereo not drawn),39.6
5,O=C(CCC(=O)N1CCc2ccccc2C1)NCCc1ccc(Cl)cc1,> 55.6
6,Cc1ccc(C(=O)C2=C(O)C(=O)N(Cc3ccco3)C2c2ccc(N(C)C)cc2)o1 (stereo not drawn),> 61
7,CCOCCCNc1ccc(N2C(=O)CCCC2=O)cc1[N+](=O)[O-],> 50.3
8,Cc1ccc(NC(/C=C/N(C)C)=C/C(=O)C(F)(F)F)c(C)c1,37.8
9,NC(=O)C1CC(=O)N(c2ccc(OCC(=O)NCc3ccccc3)cc2)C1 (stereo not drawn),> 55.1
10,CC(OC(=O)c1ccc2c(c1)NC(=O)CS2)C(=O)c1ccc(F)cc1 (stereo not drawn),18.1
11,Cc1ccc(NC(=O)CN(C)C(=O)C2CCC2)cc1,> 39.1
12,O=C(NC(=O)c1ccc(Cl)cc1)Nc1ccc(-c2cnco2)cc1,2.7
13,CS(=O)(=O)N1CCN(c2ccc([N+](=O)[O-])c3cccnc23)CC1,9.7
14,Nc1ccc(-c2nc3ccc(N)cc3s2)cc1,17.7
15,Cc1ccc(C)c(NC(=S)N(C)C)c1,> 31.2
16,CC(C)CCNS(=O)(=O)c1cc2c3c(c1)CCN3C(=O)CC2,46
17,CC1CN(Cc2cc(=O)oc3cc(O)c(Cl)cc23)CC(C)O1 (stereo not drawn),41
18,O=C(Nc1ccccc1)C(=O)Nc1cccnc1,6.9
19,CCCCCC(=O)NC(CC(=O)OC)c1ccc2c(c1)OCO2 (stereo not drawn),> 48.2
20,O=C(CN1C(=O)NC2(CCCC2)C1=O)NCc1ccc(Cl)cc1,> 50.4
21,C[C@H](NC(=O)c1ccco1)C(=O)N1CCN(c2ccc(C(F)(F)F)cn2)CC1,> 59.5
22,O=C(N/N=C/c1ccncc1)NC1CCCCC1,> 36.9
